Holding throughout (type): binding
Assay [1] addresses T1, Coagulase (Coa) (Staphylococcus aureus, UniProt P17855, L223A).
T1 sequence (P17855 27-715 L223A): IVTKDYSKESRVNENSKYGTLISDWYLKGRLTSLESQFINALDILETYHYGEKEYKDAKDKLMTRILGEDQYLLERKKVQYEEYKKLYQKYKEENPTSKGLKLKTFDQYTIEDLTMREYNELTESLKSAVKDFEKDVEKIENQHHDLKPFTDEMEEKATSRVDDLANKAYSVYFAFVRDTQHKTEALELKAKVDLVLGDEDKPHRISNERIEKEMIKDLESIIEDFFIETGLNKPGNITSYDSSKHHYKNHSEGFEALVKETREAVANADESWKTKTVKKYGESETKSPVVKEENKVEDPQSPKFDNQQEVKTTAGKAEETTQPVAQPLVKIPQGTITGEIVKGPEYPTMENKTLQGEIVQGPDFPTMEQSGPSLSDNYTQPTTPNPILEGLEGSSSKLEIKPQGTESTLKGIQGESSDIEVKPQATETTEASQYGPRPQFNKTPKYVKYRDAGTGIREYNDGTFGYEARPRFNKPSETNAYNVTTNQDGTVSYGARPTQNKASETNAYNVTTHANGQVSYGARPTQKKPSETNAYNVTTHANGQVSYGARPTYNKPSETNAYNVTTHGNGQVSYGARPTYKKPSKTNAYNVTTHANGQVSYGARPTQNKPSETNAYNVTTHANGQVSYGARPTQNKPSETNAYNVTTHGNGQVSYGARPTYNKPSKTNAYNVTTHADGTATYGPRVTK
The experiment in a line: fluorescence spectroscopy quenching (KA). The following applies: read-out: L221A (converted).

Assay [2] addresses T2, Coagulase (Coa) (Staphylococcus aureus, UniProt P17855, H230A).
T2 sequence (P17855 27-715 H230A): T1 sequence (P17855 27-715 L223A)
The experiment in a line: fluorescence spectroscopy quenching (KA). The following applies: read-out: H228A (converted).

Assay [3] concerns the target Coagulase (Coa) (Staphylococcus aureus, UniProt P17855). The experiment in a line: fluorescence spectroscopy quenching (KA); thermal shift of […]°C; plasma/blood coagulation inhibition with recombinant Coa. The following applies: read-out: WT-Coa (converted).

Turning to `O=c1c(O)c(-c2ccc(O)c(O)c2)oc2cc(O)cc(O)c12` [quercetin, 3,3′,4′,5,7‐pentahydroxyflavone], the Kd was 32.3 µM on Coagulase (Coa) [1], 25 µM at Coagulase (Coa) [2] and 21.7 µM at Coagulase (Coa) [3].

The record behind these values is article PMC6584481, “Quercetin protects rats from catheter‐related Staphylococcus aureus infections by inhibiting coagulase activity” (Journal of Cellular and Molecular Medicine, 2019).
